# Read-outs that look alike come from different tables or passages of the source.
# Legend:
# Assay in all cases: SRB proliferation assay, 72 h
# Type in all cases: cell-based
# LS180 CRC cell line = details: Homo sapiens
# Description: (§1) FIG. 17: Results of cell proliferation assay on the panel of 27 CRC cell lines. Cell proliferation was evaluated by SRB following exposure to OSI-906 for 72 hours. Cells were plated at an optimized density in 96-well plates, incubated overnight at 37° C., and then exposed to a serial dilution of OSI-906. After 72 hours incubation, cells were fixed with trichloroacetic acid and an SRB was performed as described in materials and methods.
# (§2) Cell Lines and Culture. […] human colon cancer cell lines, were obtained from American Type Culture Collection (Manassas, Va.). Cells were grown in RPMI medium supplemented with 10% fetal bovine serum, 1% non-essential amino acids, 1% penicillin/streptomycin and were maintained at 37° C. in an incubator under an atmosphere containing 5% CO2. The cells were routinely screened for the presence of mycoplasma (MycoAlert, Cambrex Bio Science, Baltimore, Md.) and were exposed to PQIP when they reached approximately 70% confluence.
# (§3) The CRC cell lines were treated with a range of concentrations of PQIP (from 0.05-5 μM) for 72 hours.
# (§4) Cell Lines and Culture: Twenty-seven human colon cancer cell lines, were obtained from American Type Culture Collection (Manassas, Va.). The GEO cells were a generous gift from Dr. Fortunato Ciardiello (Cattedra di Oncologia Medica, Dipartimento Medico-Chirurgico di Internistica Clinica e Sperimentale “F Magrassi e A Lanzara,” Seconda Università degli Studi di Napoli, Naples). All cells except GEO were grown in RPMI medium supplemented with 10% fetal bovine serum, 1% non-essential amino acids, 1% penicillin/streptomycin and were maintained at 37° C. in an incubator under an atmosphere containing 5% CO2. GEO cells were grown in DMEM/F12 supplemented with 10% fetal bovine serum, 1% non-essential amino acids, 1% penicillin/streptomycin. The cells were routinely screened for the presence of mycoplasma (MycoAlert, Cambrex Bio Science, Baltimore, Md.) and were exposed to OSI-906 when they reached approximately 70% confluence. OSI-906 was provided by OSI Pharmaceuticals, (Boulder, Colo.) and prepared as a 10 mM stock solution in DMSO.
# (§5) Assessment of responsiveness of a panel of CRC cell lines to OSI-906. In order to assess CRC cell lines with differential sensitivity to OSI-906, a panel of 27 CRC cell lines were exposed to increasing concentrations of OSI-906 and proliferation was measured using the SRB assay as described previously (Pitts, T M, et al. Mol Cancer Ther 2009; 8(2):342-9). As depicted in FIG. 17 there was a wide range of sensitivity of the CRC cell lines to OSI-906, the majority of the cell lines failing to reach an IC50 up to 5 μmol/L, but a clear distinction could be made between the cell lines that were sensitive and the cell lines that were resistant.
# LS123 CRC cell line = details: Homo sapiens
# Description: as §1, §2, §3, §4, §5
# SW837 CRC cell line = details: Homo sapiens
# Description: as §1, §2, §3, §4, §5
# LS174T CRC cell line = details: Homo sapiens
# Description: as §1, §2, §3, §4, §5
# SW403 CRC cell line = details: Homo sapiens
# Description: as §1, §2, §3, §4, §5
# SW948 CRC cell line = details: Homo sapiens
# Description: as §1, §2, §3, §4, §5
# CaCo2 CRC cell line = details: Homo sapiens
# Description: as §1, §2, §3, §4, §5
# LoVo CRC cell line = details: Homo sapiens
# Description: as §1, §2, §3, §4, §5
# HCT15 CRC cell line = details: Homo sapiens
# Description: as §1, §2, §3, §4, §5
# LS1034 CRC cell line = details: Homo sapiens
# Description: as §1, §2, §3, §4, §5
# SW48 CRC cell line = details: Homo sapiens
# Description: as §1, §2, §3, §4, §5
# Colo205 CRC cell line = details: Homo sapiens, COLO 205
# Description: as §1, §2, §3, §4, §5
# HCT8 CRC cell line = details: Homo sapiens
# Description: as §1, §2, §3, §4, §5
# T84 CRC cell line = details: Homo sapiens
# Description: as §1, §2, §3, §4, §5
# SW1417 CRC cell line = details: Homo sapiens
# Description: as §1, §2, §3, §4, §5
# SW1463 CRC cell line = details: Homo sapiens
# Description: as §1, §2, §3, §4, §5
# NCI-H508 CRC cell line = details: Homo sapiens
# Description: as §1, §2, §3, §4, §5
# SW1116 CRC cell line = details: Homo sapiens
# Description: as §1, §2, §3, §4, §5
# [1] = 72 hours, read-out: IC50, proliferation, OSI-906 (SRB)
# [2] = 72 hours, 0.05-5 μM, read-out: IC50, growth inhibition by PQIP (SRB)
smiles,measurement,setting,value
"C[C@]1(O)C[C@@H](c2nc(-c3ccc4ccc(-c5ccccc5)nc4c3)c3c(N)nccn32)C1 [OSI-906, cis-3-[8-amino-1-(2-phenyl-quinolin-7-yl)-imidazo[1,5-a]pyrazin-3-yl]-1-methyl-cyclobutanol]",IC50,LS180 CRC cell line; [1],> 5 µM
same,IC50,LS180 CRC cell line; read-out: S/I/R to OSI-906,> 5 µM
same,IC50,"LS123 CRC cell line; LS-123, 72 hours, read-out: IC50, proliferation, OSI-906 (SRB)",> 5 µM
same,IC50,"LS123 CRC cell line; LS-123, read-out: S/I/R to OSI-906",> 5 µM
same,IC50,SW837 CRC cell line; [1],> 5 µM
same,IC50,SW837 CRC cell line; read-out: S/I/R to OSI-906,> 5 µM
same,IC50,LS174T CRC cell line; [1],> 5 µM
same,IC50,LS174T CRC cell line; read-out: S/I/R to OSI-906,> 5 µM
same,IC50,"SW403 CRC cell line; SW-403, 72 hours, read-out: IC50, proliferation, OSI-906 (SRB)",> 5 µM
same,IC50,"SW403 CRC cell line; SW-403, read-out: S/I/R to OSI-906",> 5 µM
same,IC50,SW948 CRC cell line; [1],> 5 µM
same,IC50,SW948 CRC cell line; read-out: S/I/R to OSI-906,> 5 µM
same,IC50,"CaCo2 CRC cell line; Caco-2, 72 hours, read-out: IC50, proliferation, OSI-906 (SRB)",≤ 1.5 µM
same,IC50,"CaCo2 CRC cell line; Caco-2, read-out: S/I/R to OSI-906",≤ 1.5 µM
same,IC50,LoVo CRC cell line; [1],> 5 µM
same,IC50,LoVo CRC cell line; read-out: S/I/R to OSI-906,> 5 µM
same,IC50,"HCT15 CRC cell line; HCT-15, 72 hours, read-out: IC50, proliferation, OSI-906 (SRB)",> 5 µM
same,IC50,"HCT15 CRC cell line; HCT-15, read-out: S/I/R to OSI-906",> 5 µM
same,IC50,"LS1034 CRC cell line; LS-1034, 72 hours, read-out: IC50, proliferation, OSI-906 (SRB)",≤ 1.5 µM
same,IC50,"LS1034 CRC cell line; LS-1034, read-out: S/I/R to OSI-906",≤ 1.5 µM
same,IC50,SW48 CRC cell line; [1],> 5 µM
same,IC50,SW48 CRC cell line; read-out: S/I/R to OSI-906,> 5 µM
same,IC50,"Colo205 CRC cell line; CoLo205, read-out: S/I/R to OSI-906",≤ 1.5 µM
same,IC50,"Colo205 CRC cell line; Colo205, 72 hours, read-out: IC50, proliferation, OSI-906 (SRB)",≤ 1.5 µM
same,IC50,"HCT8 CRC cell line; HCT-8, 72 hours, read-out: IC50, proliferation, OSI-906 (SRB)",> 5 µM
same,IC50,"HCT8 CRC cell line; HCT-8, read-out: S/I/R to OSI-906",> 5 µM
same,IC50,T84 CRC cell line; [1],> 5 µM
same,IC50,"T84 CRC cell line; T-84, read-out: S/I/R to OSI-906",> 5 µM
same,IC50,SW1417 CRC cell line; [1],> 5 µM
same,IC50,SW1417 CRC cell line; read-out: S/I/R to OSI-906,> 5 µM
same,IC50,SW1463 CRC cell line; [1],> 5 µM
same,IC50,SW1463 CRC cell line; read-out: S/I/R to OSI-906,> 5 µM
same,IC50,NCI-H508 CRC cell line; [1],> 5 µM
same,IC50,NCI-H508 CRC cell line; read-out: S/I/R to OSI-906,> 5 µM
same,IC50,"SW1116 CRC cell line; SW 1116, 72 hours, read-out: IC50, proliferation, OSI-906 (SRB)",> 5 µM
same,IC50,"SW1116 CRC cell line; SW 1116, read-out: S/I/R to OSI-906",> 5 µM
"CN1CCN([C@H]2C[C@@H](c3nc(-c4ccc5ccc(-c6ccccc6)nc5c4)c4c(N)nccn43)C2)CC1 [PQIP, cis-3-[3-(4-Methyl-piperazin-1-yl)-cyclobutyl]1-(2-phenyl-quinolin-7-yl)-imidazo[1,5-a]pyrazin-8-ylamine]",IC50,LS180 CRC cell line; [2],> 5 µM
same,IC50,"LS123 CRC cell line; LS-123, 72 hours, 0.05-5 μM, read-out: IC50, growth inhibition by PQIP (SRB)",> 5 µM
same,IC50,SW837 CRC cell line; [2],> 5 µM
same,IC50,LS174T CRC cell line; [2],> 5 µM
same,IC50,"SW403 CRC cell line; SW-403, 72 hours, 0.05-5 μM, read-out: IC50, growth inhibition by PQIP (SRB)",> 5 µM
same,IC50,SW948 CRC cell line; [2],> 5 µM
same,IC50,"CaCo2 CRC cell line; Caco-2, 72 hours, 0.05-5 μM, read-out: IC50, growth inhibition by PQIP (SRB)",> 5 µM
same,IC50,LoVo CRC cell line; [2],> 5 µM
same,IC50,"HCT15 CRC cell line; HCT-15, 72 hours, 0.05-5 μM, read-out: IC50, growth inhibition by PQIP (SRB)",> 5 µM
same,IC50,"LS1034 CRC cell line; LS-1034, 72 hours, 0.05-5 μM, read-out: IC50, growth inhibition by PQIP (SRB)",> 5 µM
same,IC50,SW48 CRC cell line; [2],> 5 µM
same,IC50,"Colo205 CRC cell line; Colo205, 72 hours, 0.05-5 μM, read-out: IC50, growth inhibition by PQIP (SRB)",< 0.5 µM
same,IC50,"HCT8 CRC cell line; HCT-8, 72 hours, 0.05-5 μM, read-out: IC50, growth inhibition by PQIP (SRB)",> 5 µM
same,IC50,T84 CRC cell line; [2],> 5 µM
same,IC50,SW1417 CRC cell line; [2],> 5 µM
same,IC50,SW1463 CRC cell line; [2],> 5 µM
same,IC50,NCI-H508 CRC cell line; [2],> 5 µM
same,IC50,"SW1116 CRC cell line; SW 1116, 72 hours, 0.05-5 μM, read-out: IC50, growth inhibition by PQIP (SRB)",> 5 µM
